Tested on: HT-1080
Assay: Modulatory profiling: Alamar Blue viability, lethal compound cotreated with death modulator (EC50, AUC)
Format: cell-based
Parameters: AUC, modulator HT.3MA / AUC, modulator HT.ALLN / AUC HT.ATA / AUC HT.ActD / AUC HT.BHA / AUC HT.BHT / AUC HT.BocD / AUC HT.CHX / AUC HT.Co2+ / AUC HT.DPQ / AUC HT.EGTA / AUC HT.Lmim / AUC HT.NAD+ / AUC HT.Nec-1 / AUC HT.SP600125 / AUC HT.TLCK / AUC HT.U0126: unit not given beside the values
Conditions: for AUC HT.ATA: HT-1080, modulator ATA; for AUC HT.ActD: HT-1080, modulator ActD; for AUC HT.BHA: HT-1080, modulator BHA; for AUC HT.BHT: HT-1080, modulator BHT; for AUC HT.BocD: HT-1080, modulator BocD; for AUC HT.CHX: HT-1080, modulator CHX; for AUC HT.Co2+: HT-1080, modulator Co2+; for AUC HT.CspA: HT-1080, modulator CspA; for AUC HT.DPQ: HT-1080, modulator DPQ; for AUC HT.EGTA: HT-1080, modulator EGTA; for AUC HT.Gd3+: HT-1080, modulator Gd3+; for AUC HT.LNAME: HT-1080, modulator LNAME; for AUC HT.Lmim: HT-1080, modulator Lmim; for AUC HT.NAD+: HT-1080, modulator NAD+; for AUC HT.NMMA: HT-1080, modulator NMMA; for AUC HT.Nec-1: HT-1080, modulator Nec-1; for AUC HT.Pepstatin: HT-1080, modulator Pepstatin; for AUC HT.SP600125: HT-1080, modulator SP600125; for AUC HT.TLCK: HT-1080, modulator TLCK; for AUC HT.U0126: HT-1080, modulator U0126; for HT.atoc (AUC) / HT.bCarotene (AUC) / HT.deferox (AUC) / HT.digoxin (AUC) / HT.trolox (AUC) / HT.zVAD (AUC): HT-1080; for HT.atoc (AUC): modulator atoc; for HT.bCarotene (AUC): modulator bCarotene; for HT.deferox (AUC): modulator deferox; for HT.digoxin (AUC): modulator digoxin; for HT.trolox (AUC): modulator trolox; for HT.zVAD (AUC): modulator zVAD; for AUC, modulator HT.3MA / AUC, modulator HT.ALLN: HT-1080 cells, modulatory profile value (AUC); for AUC, modulator HT.3MA: lethal compound cotreated with modulator 3MA; for AUC, modulator HT.ALLN: lethal compound cotreated with modulator ALLN

| SMILES | AUC HT.ATA | AUC HT.ActD | AUC HT.BHA | AUC HT.BHT | AUC HT.BocD | AUC HT.CHX | AUC HT.Co2+ | AUC HT.CspA | AUC HT.DPQ | AUC HT.EGTA | AUC HT.Gd3+ | AUC HT.LNAME | AUC HT.Lmim | AUC HT.NAD+ | AUC HT.NMMA | AUC HT.Nec-1 | AUC HT.Pepstatin | AUC HT.SP600125 | AUC HT.TLCK | AUC HT.U0126 | also measured |
| --- | --- | --- | --- | --- | --- | --- | --- | --- | --- | --- | --- | --- | --- | --- | --- | --- | --- | --- | --- | --- | --- |
| O=C(CCCCCN1C(=O)c2cccc3cccc(c23)C1=O)NO [Scriptaid] | −0.03873 | −0.1632 | −0.05883 | −0.103 | 0.02828 | −0.1048 | −0.1939 | −0.1413 | −0.00813 | −0.01767 | −0.02176 | −0.002637 | −0.05583 | 0.01064 | 0.008869 | −0.05617 | −0.01296 | −0.07 | −0.05575 | −0.04228 | HT.atoc (AUC): −0.009331; HT.bCarotene (AUC): −0.01872; HT.deferox (AUC): −0.1469; HT.digoxin (AUC): −0.08793; HT.trolox (AUC): −0.02986; HT.zVAD (AUC): 0.02988; AUC, modulator HT.3MA: −0.1244; AUC, modulator HT.ALLN: −0.1403 |
| CC(/C=C/C(=O)NO)=C\[C@@H](C)C(=O)c1ccc(N(C)C)cc1 [TrichostatinA] | −0.0004817 | −0.1678 | −0.06956 | −0.1352 | 0.04109 | −0.09696 | −0.02771 | −0.1437 | −0.001553 | −0.01711 | −0.003398 | 0.003502 | −0.05021 | 0.03432 | 0.004335 | −0.07289 | −0.003985 | −0.06865 | −0.02599 | −0.06468 | HT.atoc (AUC): −0.005062; HT.bCarotene (AUC): −0.03472; HT.deferox (AUC): −0.1597; HT.digoxin (AUC): −0.1261; HT.trolox (AUC): −0.03382; HT.zVAD (AUC): 0.04012; AUC, modulator HT.3MA: −0.1241; AUC, modulator HT.ALLN: −0.1481 |
| CC[C@]1(O)C[C@@H]2CN(CCc3c([nH]c4ccccc34)[C@@](C(=O)OC)(c3cc4c(cc3OC)N(C)[C@H]3[C@@](O)(C(=O)OC)[C@H](OC(C)=O)[C@]5(CC)C=CCN6CC[C@]43[C@@H]65)C2)C1 [Vinbiastine] | 0.09963 | 0.05584 | −0.01651 | 0.01379 | 0.1256 | 0.06309 | 0.2269 | −0.1335 | 0.003688 | 0.01055 | −0.002557 | −0.01231 | 0.126 | 0.1682 | −0.003516 | −0.005874 | −0.0004474 | 0.002862 | 0.002362 | 0.1372 | HT.atoc (AUC): 0.1573; HT.bCarotene (AUC): 0.001945; HT.deferox (AUC): 0.2847; HT.digoxin (AUC): 0.1245; HT.trolox (AUC): −0.001959; HT.zVAD (AUC): 0.08924; AUC, modulator HT.3MA: 0.05249; AUC, modulator HT.ALLN: 0.1527 |
| CC[C@]1(O)C[C@H]2CN(CCc3c([nH]c4ccccc34)[C@@](C(=O)OC)(c3cc4c(cc3OC)N(C=O)[C@H]3[C@@](O)(C(=O)OC)[C@H](OC(C)=O)[C@]5(CC)C=CCN6CC[C@]43[C@@H]65)C2)C1 [Vincristine] | 0.1304 | 0.05976 | −0.004754 | −0.01568 | 0.1401 | 0.08269 | 0.217 | −0.1876 | 0.01267 | 0.009231 | −0.0009641 | 0.001779 | 0.1155 | 0.1699 | 0.004831 | 0.02188 | 0.000262 | 0.0008998 | −0.006394 | 0.1926 | HT.atoc (AUC): 0.01853; HT.bCarotene (AUC): 0.01182; HT.deferox (AUC): 0.3217; HT.digoxin (AUC): 0.142; HT.trolox (AUC): −0.01599; HT.zVAD (AUC): 0.1172; AUC, modulator HT.3MA: 0.0299; AUC, modulator HT.ALLN: 0.1869 |
| C[C@@H]1C[C@@H]([C@H](O)CC2CC(=O)NC(=O)C2)C(=O)[C@@H](C)C1 [cycloheximide, Cycloheximide, reference compound] | −0.01057 | 0.06057 | 0.06705 | −0.03297 | 0.0413 | 0.1462 | 0.09948 | 0.04639 | 0.01425 | 0.01386 | 0.002991 | 0.02188 | 0.1089 | 0.07007 | 0.01986 | 0.03736 | 0.006163 | −0.003327 | 0.01836 | 0.03848 | HT.atoc (AUC): 0.01667; HT.bCarotene (AUC): 0.008758; HT.deferox (AUC): 0.2041; HT.digoxin (AUC): 0.0457; HT.trolox (AUC): 0.02127; HT.zVAD (AUC): 0.0358; AUC, modulator HT.3MA: 0.005512; AUC, modulator HT.ALLN: 0.3818 |

— patent US10947188B2, “Small molecule ferroptosis inducers” (THE TRUSTEES OF COLUMBIA UNIVERSITY IN THE CITY OF NEW YORK, priority 2016, dated 2021)
